Like-named read-outs stand apart in the source and are kept apart here.

Assay in all cases: Kinase panel profiling at 1 µmol/L (MSA or IMAP), percentage inhibition
Format in all cases: biochemical

Assay [1] deals with T1, panel of 255 wild-type kinases (Homo sapiens, UniProt O14965).
T1 sequence (O14965 1-403): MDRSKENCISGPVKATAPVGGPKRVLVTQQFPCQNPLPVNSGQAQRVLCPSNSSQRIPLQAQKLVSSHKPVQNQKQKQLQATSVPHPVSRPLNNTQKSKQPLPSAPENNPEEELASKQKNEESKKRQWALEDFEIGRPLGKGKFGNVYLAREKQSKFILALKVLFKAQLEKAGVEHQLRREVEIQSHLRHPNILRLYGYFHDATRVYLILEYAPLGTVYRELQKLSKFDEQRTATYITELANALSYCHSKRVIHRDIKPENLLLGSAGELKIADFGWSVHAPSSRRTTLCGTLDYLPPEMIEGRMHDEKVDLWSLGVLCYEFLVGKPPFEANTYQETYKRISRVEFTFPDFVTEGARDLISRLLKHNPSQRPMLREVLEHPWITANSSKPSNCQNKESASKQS

The target of assay [2] is panel of 255 wild-type kinases (Homo sapiens, UniProt P35916). The conditions noted are these: read-out: %-inhibition at 1 µmol/L, FLT4.
Assay [3] concerns the target T2, panel of 255 wild-type kinases (Homo sapiens, UniProt P53778).
T2 sequence (P53778 1-367): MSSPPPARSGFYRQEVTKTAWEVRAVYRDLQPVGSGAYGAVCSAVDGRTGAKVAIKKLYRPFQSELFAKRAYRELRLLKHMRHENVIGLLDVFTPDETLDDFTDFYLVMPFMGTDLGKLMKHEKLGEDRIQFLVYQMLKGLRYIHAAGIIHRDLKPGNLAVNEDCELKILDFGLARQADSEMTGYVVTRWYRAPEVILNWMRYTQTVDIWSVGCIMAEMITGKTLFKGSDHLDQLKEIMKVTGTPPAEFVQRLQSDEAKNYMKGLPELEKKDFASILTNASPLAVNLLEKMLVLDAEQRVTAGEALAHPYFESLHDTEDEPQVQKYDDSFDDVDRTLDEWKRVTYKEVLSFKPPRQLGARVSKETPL
As to conditions: read-out: %-inhibition, p38γ.

Assay [4] addresses panel of 255 wild-type kinases (Homo sapiens, UniProt O75582). As to conditions: read-out: %-inhibition, MSK1.
In assay [5] the target is panel of 255 wild-type kinases (Homo sapiens, UniProt O75676). The conditions noted are these: read-out: %-inhibition, MSK2.
Assay [6] addresses panel of 255 wild-type kinases (Homo sapiens, UniProt Q9H4B4). As to conditions: read-out: %-inhibition at 1 µmol/L, PLK3.
Assay [7] addresses T3, panel of 255 wild-type kinases (Homo sapiens, UniProt Q9UQB9).
T3 sequence (Q9UQB9 1-309): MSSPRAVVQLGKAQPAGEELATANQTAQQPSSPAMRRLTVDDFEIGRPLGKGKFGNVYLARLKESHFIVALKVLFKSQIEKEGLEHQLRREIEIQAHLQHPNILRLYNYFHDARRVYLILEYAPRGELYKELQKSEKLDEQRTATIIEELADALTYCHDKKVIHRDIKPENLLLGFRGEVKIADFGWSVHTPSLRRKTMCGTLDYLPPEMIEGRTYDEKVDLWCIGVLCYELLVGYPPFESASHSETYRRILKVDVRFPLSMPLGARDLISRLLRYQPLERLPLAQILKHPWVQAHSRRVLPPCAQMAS
The conditions noted are these: read-out: %-inhibition AurC.

Assay [8] concerns the target T4, panel of 255 wild-type kinases (Homo sapiens, UniProt P29323).
T4 sequence (P29323 19-1055): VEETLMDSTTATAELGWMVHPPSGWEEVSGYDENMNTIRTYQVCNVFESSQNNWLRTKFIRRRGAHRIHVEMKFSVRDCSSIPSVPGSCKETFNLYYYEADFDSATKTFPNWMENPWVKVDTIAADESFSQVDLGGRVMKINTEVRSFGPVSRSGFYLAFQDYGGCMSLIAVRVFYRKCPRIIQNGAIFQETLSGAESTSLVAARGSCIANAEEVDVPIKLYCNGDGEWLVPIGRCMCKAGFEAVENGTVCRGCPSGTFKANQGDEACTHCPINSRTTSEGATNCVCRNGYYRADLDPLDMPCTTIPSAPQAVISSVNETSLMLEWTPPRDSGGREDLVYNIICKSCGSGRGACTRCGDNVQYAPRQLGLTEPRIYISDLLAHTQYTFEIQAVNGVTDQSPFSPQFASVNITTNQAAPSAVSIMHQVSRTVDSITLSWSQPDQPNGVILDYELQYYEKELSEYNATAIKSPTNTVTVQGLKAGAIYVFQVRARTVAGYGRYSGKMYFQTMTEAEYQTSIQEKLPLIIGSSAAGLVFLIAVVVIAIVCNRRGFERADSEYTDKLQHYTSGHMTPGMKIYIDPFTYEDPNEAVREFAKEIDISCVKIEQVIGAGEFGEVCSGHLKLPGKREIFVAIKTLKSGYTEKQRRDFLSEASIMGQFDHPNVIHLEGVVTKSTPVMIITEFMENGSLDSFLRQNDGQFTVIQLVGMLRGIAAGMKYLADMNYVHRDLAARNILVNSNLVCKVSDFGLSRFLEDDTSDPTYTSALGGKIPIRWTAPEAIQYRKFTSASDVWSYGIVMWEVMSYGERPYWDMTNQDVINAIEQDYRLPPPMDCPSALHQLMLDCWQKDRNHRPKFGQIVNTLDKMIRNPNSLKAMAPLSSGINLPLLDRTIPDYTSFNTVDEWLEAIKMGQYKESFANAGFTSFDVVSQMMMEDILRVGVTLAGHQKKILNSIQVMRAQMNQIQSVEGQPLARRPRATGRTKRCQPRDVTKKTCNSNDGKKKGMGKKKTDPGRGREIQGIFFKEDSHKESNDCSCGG
The conditions noted are these: read-out: %-inhibition at 1 µmol/L, EPHB2.

Assay [9] deals with panel of 255 wild-type kinases (Homo sapiens, UniProt Q15208). The conditions noted are these: read-out: %-inhibition, NDR1.
Setting [10] is: AurA kinase assay, 1 µmol/L single concentration, read-out: %-inhibition AurA.
The mark [11] stands for this setting: AurA/TPX2 kinase assay, 1 µmol/L single concentration, read-out: %-inhibition AurA/TPX2.
Setting [12] is: kinase FLT4, 1 µmol/L single concentration.
Setting [13] is: p38γ, 1 µmol/L single concentration.
Setting [14] is: MSK1, 1 µmol/L single concentration.
Setting [15] is: MSK2, 1 µmol/L single concentration.
The mark [16] stands for this setting: kinase PLK3, 1 µmol/L single concentration.
[17] abbreviates: AurC kinase assay, 1 µmol/L single concentration.
The mark [18] stands for this setting: kinase EPHB2, 1 µmol/L single concentration.
Setting [19] is: NDR1, 1 µmol/L single concentration.

As for `Cc1nc(NC(=O)N2CCC[C@H]2C(N)=O)sc1-c1ccnc(C(C)(C)C(F)(F)F)c1` [alpelisib], the inhibition at 1 µM in [1] (setting [10]) was -0.801%; in assay [1] (setting [11]), -0.57%; in assay [2] (setting [12]), 5%; in assay [3] (setting [13]), -6%; in assay [4] (setting [14]) it was -8%; in assay [5] (setting [15]), 0.0558%. The inhibition at 1 µM in assay [6] (setting [16]) was found to be 1.89%; in [7] (setting [17]), 4.51%; in [8] (setting [18]), 1.07%; in assay [9] (setting [19]), 0.245%.
For `Cn1cc(-c2cc3c(N4CCN(c5ncc([C@@](C)(N)c6ccc(F)cc6)cn5)CC4)ncnn3c2)cn1` [avapritinib], the inhibition at 1 µM in [1] (setting [10]) is 4.62%; in [1] (setting [11]), 10%; in assay [2] (setting [12]), 88%; in assay [3] (setting [13]), -0.867%; in assay [4] (setting [14]), 2.36%; in assay [5] (setting [15]), 5%. For the same molecule, the inhibition at 1 µM in assay [6] (setting [16]) is 5.69%; in assay [7] (setting [17]), 14%; in [8] (setting [18]), 31%; in assay [9] (setting [19]) it was -1.28%.
For `Cn1cnc2c(F)c(Nc3ccc(Br)cc3F)c(C(=O)NOCCO)cc21` [binimetinib], the inhibition at 1 µM in assay [1] (setting [10]) is -3%; in [1] (setting [11]) it was -4%; in [2] (setting [12]), 3.37%; in assay [3] (setting [13]), 2%; in assay [4] (setting [14]), 10%; in [5] (setting [15]) it was -3.65%. For the same molecule, the inhibition at 1 µM in [6] (setting [16]) is -0.0416%; in assay [7] (setting [17]), -6.37%; in [8] (setting [18]), 3.33%; in [9] (setting [19]), -1.86%.
In the case of `CNC(=O)c1ccc(-c2cnc3ncc(Cc4ccc5ncccc5c4)n3n2)cc1F` [capmatinib], the inhibition at 1 µM was 3.78% in assay [1] (read-out: %-inhibition AurA); -6% in [1] (read-out: %-inhibition AurA/TPX2); 10% in assay [2]; -1.26% in assay [3]; 4% in assay [4]; 1.25% in assay [5]. The inhibition at 1 µM is 0.709% in assay [6], -4.72% in assay [7], -5% in assay [8] and -0.897% in assay [9].
Consider `COc1cc2ncnc(Nc3ccc(F)c(Cl)c3)c2cc1NC(=O)/C=C/CN1CCCCC1` [dacomitinib], for which the inhibition at 1 µM in assay [1] (setting [10]) is -1.72%; in assay [1] (setting [11]), 1%; in assay [2] (setting [12]), 34%; in assay [3] (setting [13]), 0.231%; in assay [4] (setting [14]), 1.13%; in assay [5] (setting [15]) it was 6%. Moreover, the inhibition at 1 µM in assay [6] (setting [16]) was 3.6%; in [7] (setting [17]) it was 0.922%; in [8] (setting [18]), 51%; in assay [9] (setting [19]) it was -0.0726%.
In the case of `C[C@H](Nc1ncnc2nc[nH]c12)c1cc2cccc(Cl)c2c(=O)n1-c1ccccc1` [duvelisib], the inhibition at 1 µM in assay [1] (setting [10]) is -4.54%; in assay [1] (setting [11]), 1.81%; in assay [2] (setting [12]), 0.523%; in [3] (setting [13]), -4%; in assay [4] (setting [14]) it was -8%; in assay [5] (setting [15]) it was -1.39%. Besides, the inhibition at 1 µM was determined as 4.56% in assay [6] (setting [16]), 10% in assay [7] (setting [17]), 2% in assay [8] (setting [18]) and 0.434% in assay [9] (setting [19]).
On to `COC(=O)N[C@@H](C)CNc1nccc(-c2cn(C(C)C)nc2-c2cc(Cl)cc(NS(C)(=O)=O)c2F)n1` [encorafenib], for which the inhibition at 1 µM was 0.211% in assay [1] (setting [10]); -3.31% in [1] (setting [11]); 17% in [2] (setting [12]); 3.2% in assay [3] (setting [13]); 11% in assay [4] (setting [14]); -4% in assay [5] (setting [15]). Moreover, the inhibition at 1 µM in [6] (setting [16]) is 0.929%; in assay [7] (setting [17]), -10%; in assay [8] (setting [18]) it was 5.43%; in assay [9] (setting [19]) it was 1.12%.
For the molecule `CN1CCN(c2ccc(C(=O)Nc3n[nH]c4ccc(Cc5cc(F)cc(F)c5)cc34)c(NC3CCOCC3)c2)CC1` [entrectinib], the inhibition at 1 µM is 81% in assay [1] (setting [10]); 75% in assay [1] (setting [11]); -3% in [3] (setting [13]); 0.468% in assay [4] (setting [14]); 2.7% in assay [5] (setting [15]); 4.71% in assay [6] (setting [16]). In addition, the inhibition at 1 µM in [7] (setting [17]) stood at 67%; in assay [8] (setting [18]), 64%; in [9] (setting [19]), 49%.
In the case of `CCc1nc(C(N)=O)c(Nc2ccc(N3CCC(N4CCN(C)CC4)CC3)c(OC)c2)nc1NC1CCOCC1` [gilteritinib], the inhibition at 1 µM in [1] (setting [10]) was 80%; in [1] (setting [11]), 71%; in assay [2] (setting [12]) it was 99%; in [3] (setting [13]), -0.507%; in [4] (setting [14]), 25%; in assay [5] (setting [15]), 6%. Besides, the inhibition at 1 µM in assay [6] (setting [16]) is 2.59%; in assay [7] (setting [17]) it was 41%; in assay [8] (setting [18]) it was 75%; in assay [9] (setting [19]), 68%.
Turning to `CCN1CCN(c2ccc(Nc3cc(N(C)C(=O)Nc4c(Cl)c(OC)cc(OC)c4Cl)ncn3)cc2)CC1` [infigratinib], the inhibition at 1 µM in assay [1] (setting [10]) was -5.38%; in assay [1] (setting [11]) it was -10%; in assay [2] (setting [12]), 92%; in [3] (setting [13]), -3%; in [4] (setting [14]), 2.27%; in assay [5] (setting [15]), -0.703%. The inhibition at 1 µM was -0.24% in [6] (setting [16]), -7.58% in [7] (setting [17]), -0.114% in assay [8] (setting [18]) and 1.4% in assay [9] (setting [19]).

Values taken from paper PMC9516332 (Frontiers in Oncology, 2022).
